Test results taken from the CheMixHub viscosity set.
Several values for one entry are separate records, joined by “and”; a condition that tells them apart may be missing. Equal values may be shown once.

Assay: xn = mol fraction of the nth substance listed

CCCCCCCN + Cc1ccccc1
303.15 K, 101 kPa
Conditions	viscosity [mPa·s]
x2 = 0.1243	0.8161
x2 = 0.2792	0.7217
x2 = 0.4418	0.6387
x2 = 0.5561	0.5933
x2 = 0.5995	0.58
x2 = 0.7025	0.5493
x2 = 0.7845	0.5305
x2 = 0.875	0.5139
x2 = 0.939	0.5173

CCC(=O)O + c1ccccc1
101.33 kPa
Conditions	viscosity
293.15 K, x1 = 0.2	0.66 mPa·s and 0.66 mPa·s
293.15 K, x1 = 0.4	0.7 mPa·s
293.15 K, x1 = 0.5	0.734 mPa·s and 0.734 mPa·s
293.15 K, x1 = 0.8	0.889 mPa·s
303.15 K, x1 = 0.2	0.575 mPa·s
303.15 K, x1 = 0.4	0.61 mPa·s
303.15 K, x1 = 0.5	0.639 mPa·s
303.15 K, x1 = 0.8	0.774 mPa·s
308.15 K, x1 = 0.0534	0.5535 mPa·s
308.15 K, x1 = 0.1063	0.5551 mPa·s
308.15 K, x1 = 0.1575	0.5617 mPa·s
308.15 K, x1 = 0.2	0.542 mPa·s and 0.542 mPa·s
308.15 K, x1 = 0.2079	0.5677 mPa·s
308.15 K, x1 = 0.3318	0.5849 mPa·s
308.15 K, x1 = 0.4	0.575 mPa·s
308.15 K, x1 = 0.4118	0.5998 mPa·s
308.15 K, x1 = 0.5	0.602 mPa·s and 0.602 mPa·s
308.15 K, x1 = 0.5132	0.6282 mPa·s
308.15 K, x1 = 0.6132	0.6564 mPa·s
308.15 K, x1 = 0.7107	0.7012 mPa·s
308.15 K, x1 = 0.8	0.729 mPa·s
308.15 K, x1 = 0.8085	0.7408 mPa·s
308.15 K, x1 = 0.8566	0.7662 mPa·s
308.15 K, x1 = 0.9045	0.8033 mPa·s
308.15 K, x1 = 0.9524	0.8347 mPa·s
318.15 K, x1 = 0.2	0.48 mPa·s
318.15 K, x1 = 0.4	0.51 mPa·s
318.15 K, x1 = 0.5	0.533 mPa·s
318.15 K, x1 = 0.8	0.643 mPa·s

Nc1cccc(Cl)c1 + CCC(C)O
viscosity [mPa·s], 101 kPa
Conditions	x1 = 0.0889	x1 = 0.1799	x1 = 0.2733	x1 = 0.3691	x1 = 0.4674	x1 = 0.5683	x1 = 0.6719	x1 = 0.7783	x1 = 0.8876
303.15 K	2.756	2.919	3.087	3.256	3.422	3.585	3.744	3.904	4.07
308.15 K	2.318	2.483	2.65	2.817	2.983	3.148	3.313	3.48	3.654
313.15 K	2.001	2.157	2.312	2.467	2.623	2.779	2.937	3.097	3.261
318.15 K	1.706	1.857	2.003	2.147	2.29	2.434	2.579	2.727	2.874

C1C[C@@H]2[C@H]3CC[C@H](C3)[C@@H]2C1 + CCCCCO
viscosity [mPa·s], 101 kPa
Conditions	x2 = 0.1465	x2 = 0.2782	x2 = 0.3987	x2 = 0.5049	x2 = 0.6067	x2 = 0.6985	x2 = 0.7827	x2 = 0.8623	x2 = 0.9326
293.15 K	2.919	2.901	2.955	3.058	3.19	3.372	3.549	3.718	3.916
298.15 K	2.621	2.595	2.622	2.7	2.807	2.953	3.095	3.27	3.411
303.15 K	2.379	2.346	2.354	2.41	2.487	2.607	2.726	2.852	2.971
313.15 K	1.972	1.92	1.914	1.922	1.957	2.033	2.107	2.18	2.253

ClCCCCCl + CCCCO
viscosity [mPa·s], 101 kPa
Conditions	x1 = 0.0988	x1 = 0.1965	x1 = 0.2919	x1 = 0.3955	x1 = 0.4961	x1 = 0.5978	x1 = 0.6964	x1 = 0.7945	x1 = 0.8982
298.15 K	2.129	1.827	1.61	1.455	1.338	1.265	1.221	1.204	1.213
313.15 K	1.485	1.3	1.17	1.077	1.012	0.9721	0.9502	0.9443	0.9674

CCC(=O)O + CCCO
308.15 K, 101 kPa
Conditions	viscosity [mPa·s]
x1 = 0.0416	1.42
x1 = 0.084	1.443
x1 = 0.1244	1.439
x1 = 0.1683	1.368
x1 = 0.2579	1.351
x1 = 0.3504	1.328
x1 = 0.4481	1.289
x1 = 0.5489	1.242
x1 = 0.6538	1.178
x1 = 0.7644	1.096
x1 = 0.8223	1.055
x1 = 0.8798	1.006
x1 = 0.9384	0.9669

CCCCCCCCCCCCCC[P+](CCCCCC)(CCCCCC)CCCCCC.c1c[n-]nn1 + O=C=O
Conditions	viscosity [mPa·s]
298.15 K, 100 kPa, x2 = 0.38	419

CCC(=O)O + C1CCOC1
298.15 K, 101 kPa
Conditions	viscosity [mPa·s]
x2 = 0.1025	1.067
x2 = 0.2043	1.069
x2 = 0.3057	1.033
x2 = 0.4065	0.9675
x2 = 0.5067	0.8745
x2 = 0.6065	0.7835
x2 = 0.7056	0.6858
x2 = 0.8043	0.5947
x2 = 0.9024	0.5179

Nc1cccc(Cl)c1 + O=[N+]([O-])c1ccccc1
viscosity [mPa·s], 100 kPa
Conditions	x1 = 0.5896	x1 = 0.6785	x1 = 0.7825
303.15 K	–	–	3.915
318.15 K	2.615	2.755	–
